From patent US20200325505A1, “FILAMENTOUS FUNGI CAPABLE OF PRODUCING VERY LONG CHAIN FATTY ACIDS” (UT-Battelle, LLC, priority 2019, published 2020)
Read-outs that look alike come from different tables or passages of the source.

Tested on: Mortierella elongata AG77
Assay: Carbon source utilisation in Biolog 96-well plates, formazan formation after tetrazolium addition
Type: cell-based
Conditions: for Metabolized: Metabolized = more formazan formation than a control containing no carbon source, observed visually at 2 h, 24 h, 148 h; for Carbon sources that Mortierella elongata AG77 can metabolize: summary of Table 3
Description: Two 300 mL volumes of growth medium comprising 1 g/L KH2PO4, 1 g/L MgSO4 7H2O, 0.1 g/L CaCl2, 0.02 g/L FeNaEDTA, 0.1 g/L NaCl, and either 1 g/L NH4NO3 or 20 g/L sucrose were prepared. Acidity was adjusted to 5.5 using NaOH and volumes of growth medium were autoclaved 30 min at 121° C. to sterilize. Aliquots of 200 μL of carbon-free medium or nitrogen-free medium were pipetted into each well of a set of 96-well plates previously prepared with lyophilized putative carbon or nitrogen sources (Biolog Inc., Hayward, Calif.). Inocula were prepared by perforating a culture of Mortierella elongata AG77 grown on 20 g/L potato dextrose agar with a 3 mm diameter cork borer and separating the surface mycelial mat from the solid growth medium using tweezers. Each well was inoculated with one inoculum. Cultures were incubated at 21° C. for 24 hours to allow metabolic changes to stabilize, and then 100 μL of 3 g/L tetrazolium chloride in water was added to each well. Formazan formation was observed visually at 2 h, 24 h, and 148 h.
Conclusions were based on rate and intensity of formazan formation using the 3-4,5-dimethylthiazol-2-yl)-2,5-diphenyltetrazolium bromide (MTT) assay. “Metabolized” indicates more formazan formation than a control containing no carbon source, and “Toxic” indicates less formazan formation than a control containing no carbon source. “Metabolized” and “Toxic” assignments are mutually exclusive. In this example, a compound may be “Metabolized” or “Toxic,” but not both.

[1] = compound as carbon source, Toxic = less formazan formation than a control containing no carbon source

Molecule | Metabolized (compound as carbon source) | Toxic [1] | Toxic | Carbon sources that Mortierella elongata AG77 can metabolize
C[C@H](O)[C@@H](O)[C@@H](O)[C@H](O)C=O [L-Fucose] | no | no | – | –
OC[C@@H](O)[C@@H](O)CO [i-Erythritol] | no | no | – | –
O=C(O)Cc1cccc(O)c1 [m-Hydroxy Phenyl Acetic Acid] | no | no | – | –
O=C(O)c1ccc(O)cc1 [4-Hydroxy Benzoic Acid] | no | – | no | –
OC[C@@H](O)[C@@H](O)[C@@H](O)CO [Adonitol] | no | – | no | –
O=CC[C@H](O)[C@H](O)CO [2-Deoxy-D-Ribose] | no | – | no | –
O=C(O)CC(CC(=O)O)C(=O)O [Tricarballylic Acid] | yes | – | no | can metabolize
O=C(O)CC(Br)C(=O)O (stereo not drawn) [Bromo Succinic Acid] | no | no | – | –
O=CO [Formic Acid] | no | no | – | –
OC[C@H]1O[C@H](O)[C@H](O)[C@@H](O)[C@@H]1O [α-D-Glucose] | no | – | no | –
OC[C@H]1O[C@@H](O[C@H]2[C@H](O)[C@@H](O)[C@H](O)O[C@@H]2CO)[C@H](O)[C@@H](O)[C@@H]1O [D-Cellobiose] | no | – | – | –
N#C[C@H](O[C@@H]1O[C@H](CO[C@@H]2O[C@H](CO)[C@@H](O)[C@H](O)[C@H]2O)[C@@H](O)[C@H](O)[C@H]1O)c1ccccc1 [Amygdalin] | no | no | – | –
OC[C@H]1O[C@@H](O)[C@H](O)[C@H](O)[C@@H]1O [β-D-Allose] | no | – | no | –
OC[C@H]1O[C@@](CO)(O[C@H]2O[C@H](CO)[C@@H](O)[C@H](O)[C@H]2O)[C@@H](O)[C@@H]1O [Sucrose] | no | – | no | –
C/C(=C/C(=O)O)C(=O)O [Citraconic Acid] | no | – | no | –
OC[C@H]1O[C@H](OCC2O[C@@H](O)[C@H](O)[C@@H](O)[C@@H]2O)[C@H](O)[C@@H](O)[C@H]1O (stereo partly drawn) [D-Melibiose] | no | no | – | –
O=C[C@@H](O)[C@H](O)[C@H](O)CO [D-Arabinose] | no | – | no | –
C[C@H](O)[C@@H](N)C(=O)O [D-Threonine] | yes | – | no | can metabolize
O=C(CO)[C@@H](O)[C@H](O)[C@H](O)CO [D-Fructose] | no | – | no | –
O=CC(=O)O [Glyoxylic Acid] | no | – | – | –
O=C(O)CO [Glycolic Acid] | yes | no | – | can metabolize
O=C(O)C(=O)O [Oxalic Acid] | no | – | – | –
Tween 80 | yes | no | – | can metabolize
O=C(CO)[C@@H](O)[C@H](O)[C@@H](O)CO [L-Sorbose] | no | – | no | –
OC[C@@H](O)[C@@H](O[C@@H]1O[C@H](CO)[C@H](O)[C@H](O)[C@H]1O)[C@H](O)[C@@H](O)CO [Lactitol] | no | – | no | –
O=C(O)CCC(=O)C(=O)O [α-Keto-Glutaric Acid] | – | no | – | –
O=C(O)/C=C/C(=O)O [Fumaric Acid] | yes | – | no | can metabolize
OCc1ccccc1O[C@@H]1O[C@H](CO)[C@@H](O)[C@H](O)[C@H]1O [Salicin] | yes | – | no | can metabolize
CC(=O)N[C@@H](CO)[C@@H](O)[C@H](O)[C@H](O)CO [N-Acetyl-D-Glucosaminitol] | no | no | – | –
